According to patent publication US8975248B2, “Combinations of therapeutic agents for treating cancer” (Sigma-Tau Industrie Farmaceutiche Riunite S.p.A., priority 2004, dated 2015):
Read-outs that look alike come from different tables or passages of the source.

Tests used:
NCI-H460 NSCLC [1] = experiment: Antitumor activity against NCI-H460 xenograft (paclitaxel); settings: for reduction of the tumor volume: 5 days for 3 cycles
Method: (§2) Mice are treated with 3 intravenously doses of paclitaxel at days 3, 10, 17 after tumor injection. […] Treatments in NCI-H460 tumor model are performed in the following groups of 8 mice each: • 1. Vehicle • 2. 50 mg/15 ml/kg, i.v. of paclitaxel (3, 10, 17) • 3. […] 25 mg/15 ml/kg, i.v. of paclitaxel (3, 10, 17) • 5.

[2] = Maximum tolerated dose (MTD) in tumor-bearing mice; assay type: in vivo
[3] = test system: A2780/DDP platinum-resistant ovarian carcinoma; experiment: Antitumor activity against A2780/DDP xenograft; assay type: in vivo, human (xenograft in CD1 nu/nu mice)
Method: 8 mice/group are treated 3 days after tumor injection with the following drugs. • 1. Vehicle • 2.
(§1) In all the combination groups, the drug were administered 1 h before 7-t butoxyiminomethylcamptothecin.

[4] = test system: NCI-H460 non-small cell lung carcinoma; experiment: Antitumor activity against NCI-H460 xenograft (docetaxel, carboplatin); assay type: in vivo, human (xenograft in CD1 nu/nu mice)
A2780 ovarian carcinoma = experiment: Antitumor activity against A2780 ovarian carcinoma xenograft; assay type: in vivo, human (s.c. xenograft in CD1 nu/nu mice)
Method: Vehicle • 2. […] Oxaliplatin 7 mg/10 ml/kg and 4.7 mg/10 ml/kg, i.p. (q4dx2, days 3, 7). • 4. Combination groups: 7-t-butoxyiminomethylcamptothecin+oxaliplatin: 0.28+7, 0.28+4.7, 0.19+7, 0.19+4.7. • 5. […] Oxaliplatin 7 mg/10 ml/kg, i.p. (q7dx2, days 3, 10). • 7. Combination groups: 7-t-butoxyiminomethylcamptothecin+oxaliplatin 0.19+7.
7-8 mice/group are treated 3 days after tumor injection with the following drugs. • 1. Vehicle • 2. […] Carboplatin 50 mg/10 ml/kg, i.p. (q7dx2, days 3, 10). • 7. Combination groups: 7-t-butoxyiminomethylcamptothecin+carboplatin 0.19+50.
as §1

NCI-H460 NSCLC [5] = settings: in vivo, po
Method: as §2

MCF-7 human breast ca. = experiment: Antitumor activity against MCF-7 breast carcinoma xenograft; settings: for BWL % (body weight loss): in vivo, po
Method: The pellets are placed in the inter scapular region one day before the tumor cells inoculation. 8 mice/group are treated 6 days after tumor injection with the following drugs: • 1. Vehicle • 2.

DU145 prostate carcinoma = experiment: Antitumor activity against DU145 xenograft; settings: for BWL % (body weight loss): in vivo, po
Method: 8 mice/group are treated 14 days after tumor injection with the following drugs: • 1. Vehicle • 2.
8 mice/group are also treated 14 days after tumor injection with the following drugs: • 1. […] Docetaxel 20 mg/10 mi/kg, i.p., (q7dx3, days 14, 21, 28). • 3. Combination groups: 7-t-butoxyiminomethylcamptothecin+docetaxel 0.17+20.

[6] = test system: MDA MB 435S human breast cancer; experiment: Antitumor activity against MDA MB 435S xenograft; assay type: in vivo, human (xenograft in BALB/c nu/nu mice)
Method: Test system: BALB/c nu/nu mice for tumor models are used.
The cells are harvested by trypsinisation, washed twice in HBSS and counted using Trypan Blue to distinguish viable cells.
Doxorubicin (either on its own or in conjunction with Gimatecan) is administered 3 times per week intravenously, via the tail vein (i.v.). • 1. Vehicle • 2.
The paired t-test is used to determine differences in body weight changes from Day 0 to Day 13 for groups 14 and 15 and from Day 0 to Day 20 for all other groups (Table 4). All calculations are done using SigmaStat 3.0. The one way ANOVA procedure is used for statistical calculations of differences in the tumor volumes.

[7] = carboplatin 50 mg/kg i.p. q4dx2
[8] = A 0.08 mg/kg p.o. qdx5/w, 3 cycles
[9] = A 0.28 mg/kg p.o. qdx5/w, 0.28 mg/kg
[10] = docetaxel 20 mg/kg i.p. q3-4dx2

Compound: CC(=O)O[C@H]1C(=O)[C@@]2(C)[C@H]([C@H](OC(=O)c3ccccc3)[C@]3(O)C[C@H](OC(=O)[C@H](O)[C@@H](NC(=O)c4ccccc4)c4ccccc4)C(C)=C1C3(C)C)[C@]1(OC(C)=O)CO[C@@H]1C[C@@H]2O [B, paclitaxel, reference compound]
- T/C % (TW in treated mice/TW in control mice × 100) (NCI-H460 NSCLC [1]; paclitaxel 25 mg/kg i.v. q7dx3): 55.2%
- T/C % (TW in treated mice/TW in control mice × 100) (NCI-H460 NSCLC [1]; paclitaxel 33.3 mg/kg i.v. q7dx3): 36.8%
- T/C % (TW in treated mice/TW in control mice × 100) (NCI-H460 NSCLC [1]; paclitaxel 50 mg/kg i.v. q7dx3): 38.6%
- MTD ([2]; female, CD1 nu/nu, mouse, in vivo, iv, paclitaxel i.v. q7dx3, read-out: tolerated dose (MTD)): 50 mg/kg

Compound: carboplatin [reference compound]
- MTD ([2]; carboplatin i.p. q4dx2): 50 mg/kg
- TVI % (tumor volume inhibition) [3, 7]: 34%
- TVI % (tumor volume inhibition) [4, 7]: 59%

Compound: CC[C@@]1(O)C(=O)OCc2c1cc1n(c2=O)Cc2c-1nc1ccccc1c2/C=N/OC(C)(C)C [A]
- T/C % (TW in treated mice/TW in control mice × 100) (NCI-H460 NSCLC [1]; [8]): 59.5%
- Tox (dead/treated mice) (NCI-H460 NSCLC [1]; [8]): 0/8
- T/C % (TW in treated mice/TW in control mice × 100) (NCI-H460 NSCLC [1]; A 0.125 mg/kg p.o. qdx5/w, 3 cycles): 9.9%
- Tox (dead/treated mice) (NCI-H460 NSCLC [1]; A 0.125 mg/kg p.o. qdx5/w, 3 cycles, 0.125 mg/kg): 0/8
- reduction of the tumor volume (NCI-H460 NSCLC [1]; A 0.125 mg/kg): ~90%
- T/C % (TW in treated mice/TW in control mice × 100) (NCI-H460 NSCLC [1]; A 0.25 mg/kg p.o. qdx5/w, 3 cycles): 1.5%
- Tox (dead/treated mice) (NCI-H460 NSCLC [1]; A 0.25 mg/kg p.o. qdx5/w, 3 cycles, 0.25 mg/kg): 0/8
- reduction of the tumor volume (NCI-H460 NSCLC [1]; A 0.25 mg/kg): about 99%
- BWL % (body weight loss) (A2780 ovarian carcinoma; A 0.19 mg/kg p.o. qdx5/w): 6%
- CR (complete response) (A2780 ovarian carcinoma; A 0.19 mg/kg p.o. qdx5/w): 8/8
- LCK (log10 cell kill) (A2780 ovarian carcinoma; A 0.19 mg/kg p.o. qdx5/w): 2.15
- TVI % (tumor volume inhibition) (A2780 ovarian carcinoma; A 0.19 mg/kg p.o. qdx5/w): 100%
- Tox (dead/treated mice) (A2780 ovarian carcinoma; A 0.19 mg/kg p.o. qdx5/w): 0/8
- BWL % (body weight loss) (A2780 ovarian carcinoma; A 0.19 mg/kg p.o. qdx5/wx2w): 6%
- CR (complete response) (A2780 ovarian carcinoma; A 0.19 mg/kg p.o. qdx5/wx2w): 4/7
- LCK (log10 cell kill) (A2780 ovarian carcinoma; A 0.19 mg/kg p.o. qdx5/wx2w): 3.15
- TVI % (tumor volume inhibition) (A2780 ovarian carcinoma; A 0.19 mg/kg p.o. qdx5/wx2w): 100%
- Tox (dead/treated mice) (A2780 ovarian carcinoma; A 0.19 mg/kg p.o. qdx5/wx2w): 0/7
- BWL % (body weight loss) (A2780 ovarian carcinoma; A 0.28 mg/kg p.o. qdx5/w): 13%
- CR (complete response) (A2780 ovarian carcinoma; A 0.28 mg/kg p.o. qdx5/w): 8/8
- TVI % (tumor volume inhibition) (A2780 ovarian carcinoma; A 0.28 mg/kg p.o. qdx5/w): 100%
- Tox (dead/treated mice) (A2780 ovarian carcinoma; A 0.28 mg/kg p.o. qdx5/w): 0/8
- LCK (log10 cell kill) (A2780 ovarian carcinoma; [9]): 2.44
- MTD at 5 days ([2]; CD1 nu/nu, mouse, in vivo, po, p.o. qdx5): 0.28 mg/kg
- MTD ([2]; female, CD1 nu/nu, mouse, in vivo, oral, qdx5/w, A2780/DDP model, read-out: approximate maximum tolerated dose): ~0.28 mg/kg
- MTD ([2]; male, mouse, in vivo, oral, qdx5/w, DU145 model, read-out: approximate maximum tolerated dose): ~0.25 mg/kg
- BWL % (body weight loss) (NCI-H460 NSCLC [5]; 0.08 mg/kg): 0%
- BWL % (body weight loss) (NCI-H460 NSCLC [5]; 0.125 mg/kg): 0%
- BWL % (body weight loss) (NCI-H460 NSCLC [5]; 0.25 mg/kg): 0%
- CR (complete response) (MCF-7 human breast ca.; A 0.19 mg/kg p.o. qdx5/w): 1/8
- TVI % (tumor volume inhibition) (MCF-7 human breast ca.; A 0.19 mg/kg p.o. qdx5/w): 81%
- Tox (dead/treated mice) (MCF-7 human breast ca.; A 0.19 mg/kg p.o. qdx5/w): 2/8
- TVI % (tumor volume inhibition) (MCF-7 human breast ca.; A 0.28 mg/kg p.o. qdx5/w): 70%
- Tox (dead/treated mice) (MCF-7 human breast ca.; A 0.28 mg/kg p.o. qdx5/w): 1/8
- CR (complete response) (MCF-7 human breast ca.; [9]): 1/8
- BWL % (body weight loss) (MCF-7 human breast ca.; 0.19 mg/kg): 10%
- BWL % (body weight loss) (MCF-7 human breast ca.; 0.28 mg/kg): 9%
- BWL % (body weight loss) ([3]; A 0.19 mg/kg p.o. qdx5/w): 1%
- LCK (log10 cell kill) ([3]; A 0.19 mg/kg p.o. qdx5/w): 0.18
- TVI % (tumor volume inhibition) ([3]; A 0.19 mg/kg p.o. qdx5/w): 35%
- Tox (dead/treated mice) ([3]; A 0.19 mg/kg p.o. qdx5/w): 0/8
- BWL % (body weight loss) ([3]; A 0.28 mg/kg p.o. qdx5/w): 7%
- LCK (log10 cell kill) ([3]; A 0.28 mg/kg p.o. qdx5/w): 0.23
- TVI % (tumor volume inhibition) ([3]; A 0.28 mg/kg p.o. qdx5/w): 46%
- Tox (dead/treated mice) ([3]; A 0.28 mg/kg p.o. qdx5/w): 0/8
- BWL % (body weight loss) ([4]; A 0.19 mg/kg p.o. qdx5/w): 8%
- CR (complete response) ([4]; A 0.19 mg/kg p.o. qdx5/w): 1/8
- LCK (log10 cell kill) ([4]; A 0.19 mg/kg p.o. qdx5/w): 1.14
- TVI % (tumor volume inhibition) ([4]; A 0.19 mg/kg p.o. qdx5/w): 79%
- Tox (dead/treated mice) ([4]; A 0.19 mg/kg p.o. qdx5/w): 0/8
- BWL % (body weight loss) ([4]; A 0.19 mg/kg p.o. qdx5/wx2w): 7%
- CR (complete response) ([4]; A 0.19 mg/kg p.o. qdx5/wx2w): 0/7
- LCK (log10 cell kill) ([4]; A 0.19 mg/kg p.o. qdx5/wx2w): 2.3
- TVI % (tumor volume inhibition) ([4]; A 0.19 mg/kg p.o. qdx5/wx2w): 94%
- Tox (dead/treated mice) ([4]; A 0.19 mg/kg p.o. qdx5/wx2w): 0/7
- BWL % (body weight loss) ([4]; A 0.28 mg/kg p.o. qdx5/w): 16%
- CR (complete response) ([4]; A 0.28 mg/kg p.o. qdx5/w): 0/8
- LCK (log10 cell kill) ([4]; A 0.28 mg/kg p.o. qdx5/w): 1.45
- TVI % (tumor volume inhibition) ([4]; A 0.28 mg/kg p.o. qdx5/w): 94%
- Tox (dead/treated mice) ([4]; A 0.28 mg/kg p.o. qdx5/w): 1/8
- CR (complete response) (DU145 prostate carcinoma; A 0.19 mg/kg p.o. qdx5/w): 0/8
- LCK (log10 cell kill) (DU145 prostate carcinoma; A 0.19 mg/kg p.o. qdx5/w): 0.28
- TVI % (tumor volume inhibition) (DU145 prostate carcinoma; A 0.19 mg/kg p.o. qdx5/w): 25%
- Tox (dead/treated mice) (DU145 prostate carcinoma; A 0.19 mg/kg p.o. qdx5/w): 0/8
- CR (complete response) (DU145 prostate carcinoma; A 0.25 mg/kg p.o. qdx5/w): 0/8
- LCK (log10 cell kill) (DU145 prostate carcinoma; A 0.25 mg/kg p.o. qdx5/w): 0.28
- TVI % (tumor volume inhibition) (DU145 prostate carcinoma; A 0.25 mg/kg p.o. qdx5/w): 53%
- Tox (dead/treated mice) (DU145 prostate carcinoma; A 0.25 mg/kg p.o. qdx5/w): 0/8
- BWL % (body weight loss) (DU145 prostate carcinoma; 0.19 mg/kg): 4%
- BWL % (body weight loss) (DU145 prostate carcinoma; 0.25 mg/kg): 8%
- BWL % (body weight loss) ([6]; A 0.07 mg/kg p.o. qdx5/w): (+2.5) %
- T/C % ([6]; A 0.07 mg/kg p.o. qdx5/w): 93%
- Tox (dead/treated mice) ([6]; A 0.07 mg/kg p.o. qdx5/w): 9/9
- BWL % (body weight loss) ([6]; A 0.14 mg/kg p.o. qdx5/w): 1%
- T/C % ([6]; A 0.14 mg/kg p.o. qdx5/w): 46%
- Tox (dead/treated mice) ([6]; A 0.14 mg/kg p.o. qdx5/w): 0/9
- BWL % (body weight loss) ([6]; A 0.21 mg/kg p.o. qdx5/w): 1%
- T/C % ([6]; A 0.21 mg/kg p.o. qdx5/w): 5%
- Tox (dead/treated mice) ([6]; A 0.21 mg/kg p.o. qdx5/w): 1/9

Compound: CC(=O)O[C@@]12CO[C@@H]1C[C@H](O)[C@@]1(C)C(=O)[C@H](O)C3=C(C)[C@@H](OC(=O)[C@H](O)[C@@H](NC(=O)OC(C)(C)C)c4ccccc4)C[C@@](O)([C@@H](OC(=O)c4ccccc4)[C@H]21)C3(C)C [B, docetaxel, reference compound]
- MTD ([2]; CD1 nu/nu, mouse, in vivo, ip, docetaxel i.p. q4dx2, read-out: MTD): 20 mg/kg
- CR (complete response) (MCF-7 human breast ca.; [10]): 1/8
- TVI % (tumor volume inhibition) (MCF-7 human breast ca.; [10]): 73%
- TVI % (tumor volume inhibition) ([4]; docetaxel 20 mg/kg i.p. q4dx2): 63%
